Patent US12077551B2, “Zinc complex, preparation thereof and use thereof for trerapy of human and animal diseases” (OBSCHESTVO S OGRANICHENNOI OTVETSTVENNOSTIYU “Z …, priority 2018, dated 2024)

Columns and labels:
[1] = test system: mouse atopic dermatitis model; assay: Mouse atopic dermatitis model (DNCB), histological analysis of the affected ear; assay type: in vivo, male mice of the balb/c strain
Procedure: Experimental technique. The study of Compound 1 activity in the model of atopic dermatitis was carried out using the standard technique [Evidence-based Complementary and Alternative Medicine. 2012. Article ID 545497, 9 pages). For the experimental group, we selected animals of average appearance without signs of deviations, with the weight of the animal being no more than ±20% from the average value within the sex. On days 0 and 12 of the experiment, male mice of the balb/c strain were treated with 100 μl of a 2% solution of 1-chloro-2,4-dinitrobenzene (DNCB) in ethanol applied to the previously shaved areas on the back to sensitize the body. On the 17th day, 20 μl of 2% alcohol solution of DNCB was applied to the “test” right ear of the animals twice with an interval of 1 hour. Compound 1 cream with an active substance content of 0.01 wt % was administered topically, to the “test” right ear, twice: 1 and 13 hours after the last application of DNCB to the ear. The following were used as a comparison/reference/control medications: Methylprednisolone aceponate ([…] ointment for external use), pyrithione zinc (0.2% cream for external use), pimecrolimus (1% cream for external use) and cream for external use containing gamma-L-glutamylhistamine 0.01%. On the 18th day, the animals were euthanized and the histological analysis of the affected ear was performed. Histological sections with a thickness of 5 μm were stained with hematoxylin-eosin. […] The data obtained were verified using the Grubbs test, also known as the maximum normalized residual test a test used to detect outliers in a data set. The values identified as “outliers” in this test were not used for further analysis. Descriptive statistics were used for all data: the mean (M) and standard error of the mean (m) were calculated. The normal distribution of the values obtained in the experiment was verified using the Kolmogorov-Smirnov test. In the case of a normal distribution, Student's t-test was used to assess intergroup differences. […] Differences were determined at a 5% confidence level.

[2] = biological target: recombinant intracellular human glutaminyl cyclase (Homo sapiens, UniProt Q9NXS2); assay: Enzymatic activity of human glutaminyl cyclase in vitro (fluorescent substrate Gln-bNA); assay type: biochemical; conditions: 25° C., 50 μM Gln-bNA, pH 8.0, enzyme incubated with compound for 5 minutes; read-out: IC50, inhibition of glutaminyl cyclase activity
Procedure: In the studies of the effect of Compound 1 (which is the subject of the present invention) on the enzymatic activity of glutaminyl cyclase in vitro, the direct inhibitory effect of Compound 1 on recombinant intracellular human glutaminyl cyclase was discovered.
The activity of glutaminyl cyclase at various Compound 1 concentrations was studied at 25° C. using the fluorescent substrate L-glutaminyl 2-naphthylamide (Gln-bNA) [Anal Biochem. 2002 Apr. 1; 303 (1): 49-56]. The reaction mixture with a volume of 100 μl contained 50 μM of a fluorogenic substrate; ˜0.2 units of human pyroglutaminyl aminopeptidase (1 unit is defined as the amount that hydrolyzes 1 micromole of pGlu-bNA per minute), and an aliquot of recombinant intracellular human glutaminyl cyclase (gQC) in […] trisaminomethane HCl and 5% glycerol, pH 8.0. The reaction was initiated by adding an aliquot of glutaminyl cyclase incubated with Compound 1 for 5 minutes to the reaction mixture.
Further progression of the reaction was monitored spectrophotometrically (excitation and emission wavelengths were 320 and 410 nm). Enzymatic activity was determined by the amount of released 2-naphthylamide (bNA), calculated based on the calibration curve. IC50 values were calculated using non-linear regression of the “inhibitor concentration”-“enzyme activity” curve.

[3] = Solubility and dissociation of the product (NMR solvents, D2O spectrum); assay type: physicochemical
Description: The prepared resulting product is insoluble in solvents which are used to record NMR spectra.
It mainly contains the residual signal of the non-deuterated solvent, and low-intensity signals corresponding to the original gamma-L-glutamylhistamine.

Sequence of recombinant intracellular human glutaminyl cyclase (Q9NXS2 whole entry): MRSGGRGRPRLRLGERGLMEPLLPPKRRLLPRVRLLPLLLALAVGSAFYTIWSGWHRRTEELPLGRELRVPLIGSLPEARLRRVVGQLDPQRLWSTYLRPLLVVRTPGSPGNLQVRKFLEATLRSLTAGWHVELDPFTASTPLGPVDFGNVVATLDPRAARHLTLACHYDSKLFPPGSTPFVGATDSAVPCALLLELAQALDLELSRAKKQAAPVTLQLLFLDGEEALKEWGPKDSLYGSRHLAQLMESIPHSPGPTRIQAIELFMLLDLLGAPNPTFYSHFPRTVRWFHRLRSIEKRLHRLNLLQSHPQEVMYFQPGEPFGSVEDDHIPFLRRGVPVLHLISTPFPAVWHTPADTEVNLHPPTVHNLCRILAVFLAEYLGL

- IC50 [2]: 26 µM
- solubility in solvents used to record NMR spectra ([3]; product of Example 2): insoluble
- dissociation in aqueous suspensions ([3]; product of Example 2, D2O NMR spectrum): insignificant dissociation
Substance: zinc complex of gamma-L-glutamylhistamine [Compound 1]
- action in comparison with the gamma-L-glutamylhistamine ligand ([1]; 0.01 wt % cream vs cream containing gamma-L-glutamylhistamine 0.01%): significant improvement
- effectiveness in comparison with the reference drugs methylprednisolone aceponate, zinc pyrithione and pimecrolimus ([1]; 0.01 wt % cream vs reference ointment/creams): superior performance
- influx of inflammatory cells (monocytes, dendritic cells, eosinophils and neutrophils) into the epidermis and dermis of the skin ([1]; 0.01 wt % cream, topical to right ear, 1 and 13 hours after last DNCB application, histology on day 18): to the level of intact animals
